Experimental data reported in patent US12435091B2, “RNA-binding protein multimerization inhibitors and methods of use thereof” (THE UAB RESEARCH FOUNDATION, priority 2020, dated 2025).
Converted amounts (≈) assume the structure as drawn. “And” between values parts separate entries of the source, which are not always exact repeats. Equal values may be shown once. Read-outs that look alike come from different tables or passages of the source.

Legend:
[1] = in vivo pharmacokinetic study in mice by ip administration; set-up: species or system C57Bl/6 mice; conditions: for concentration at 0.167 h / concentration at 0.5 h / Kp at 0.167 h / Kp at 0.5 h / Kp at 1 h / AUC(0-inf) / AUC(0-t) / Cmax / Tmax / MRT inf / half-life / Brain concentration / Plasma concentration / Ratio (Brain/Plasma) / AUCExtrap—obs: mouse; for concentration at 0.167 h / concentration at 0.5 h / Kp at 0.167 h / Kp at 0.5 h / Kp at 1 h / Brain concentration / Plasma concentration / Ratio (Brain/Plasma): 10 mg/kg IP; for AUC(0-inf) / AUC(0-t) / Cmax / Tmax / MRT inf / half-life: C57Bl/6; for MRT inf: read-out: MRTInf_obs
Procedure: The in vivo PK study for SRI-42127 was performed by Pharmaron (Beijing, China); pharmacokinetics were evaluated in the C57Bl/6 mice. […]

[2] = aqueous solubility at pH 7.4; assay type: physicochemical; conditions: aqueous medium at pH 7.4, pH 7.4, aqueous buffer; read-out: Sol @ pH 7.4
Procedure: (§4) Selected compounds were assessed for their aqueous solubility, Log D and mouse and human liver microsomal stability.

[3] = molecular target: AAK1 (Homo sapiens, UniProt Q2M2I8); assay: SelectScreen kinase profiling, LanthaScreen Binding
AAK1, sequence (Q2M2I8 whole entry): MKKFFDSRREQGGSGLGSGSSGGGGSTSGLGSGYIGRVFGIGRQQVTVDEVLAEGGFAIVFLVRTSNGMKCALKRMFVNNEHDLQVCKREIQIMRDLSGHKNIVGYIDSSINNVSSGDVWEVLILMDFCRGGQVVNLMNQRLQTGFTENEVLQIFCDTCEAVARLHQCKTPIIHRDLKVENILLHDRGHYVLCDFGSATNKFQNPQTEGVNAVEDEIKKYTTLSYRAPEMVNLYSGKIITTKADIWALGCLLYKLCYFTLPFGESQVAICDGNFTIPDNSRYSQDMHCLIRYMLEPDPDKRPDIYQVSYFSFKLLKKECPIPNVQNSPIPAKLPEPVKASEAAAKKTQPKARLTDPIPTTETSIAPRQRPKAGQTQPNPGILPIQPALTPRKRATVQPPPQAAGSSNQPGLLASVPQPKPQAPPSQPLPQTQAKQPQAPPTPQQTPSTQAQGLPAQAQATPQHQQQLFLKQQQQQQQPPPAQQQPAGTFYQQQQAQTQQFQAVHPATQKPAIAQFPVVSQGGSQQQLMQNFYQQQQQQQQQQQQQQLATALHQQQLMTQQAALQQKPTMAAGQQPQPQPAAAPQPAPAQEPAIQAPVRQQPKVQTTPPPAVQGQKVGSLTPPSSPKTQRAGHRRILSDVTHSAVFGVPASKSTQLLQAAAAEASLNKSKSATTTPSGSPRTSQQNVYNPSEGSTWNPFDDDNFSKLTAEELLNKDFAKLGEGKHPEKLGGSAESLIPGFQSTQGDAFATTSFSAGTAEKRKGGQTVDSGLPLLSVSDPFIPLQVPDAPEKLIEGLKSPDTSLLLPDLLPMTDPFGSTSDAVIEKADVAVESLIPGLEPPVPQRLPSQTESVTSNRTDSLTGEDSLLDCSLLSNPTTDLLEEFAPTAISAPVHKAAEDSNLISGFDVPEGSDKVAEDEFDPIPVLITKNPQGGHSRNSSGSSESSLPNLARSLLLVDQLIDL
Procedure: (§1) The kinase inhibitory potentials of compounds as described herein (e.g., SRI-42127 and SRI-41664) were evaluated by ThermoFisher Scientific's SelectScreen™ Kinase Profiling Service. The following kinase inhibitory assays were utilized: ZLYTE (Madison, WI) for NTRK1, PIM1, and cMET kinases; LanthaScreen Binding (Madison, WI) for AAK1 kinase; and Adapta (Madison, WI) for IRAK1 kinase.

[4] = tested on: PDGx neurosphere cell lines (JX12p, X14P, XD456, X1524, and JX22p); assay: RNA-Seq analysis and gene ontology enrichment across all PDGx neurosphere cell lines; assay type: cell-based; conditions: 3 uM for 12 hours, in four of five neurosphere cell lines
Procedure: Illumina global RNA-sequencing data were generated by utilizing PDGx neurospheres, which have been treated with a compound as described herein (e.g., SRI-42127, 3 uM) for 12 hours or with vehicle as the control. RNA was isolated by using TRIzol reagent (Invitrogen; Carlsbad, CA). The RNA samples were processed.
The RNA-Sequencing data was generated using glioma neurospheres representing the different molecular subtypes (classical, neuronal, and mesenchymal) in the control (treatment with vehicle) and after treatment with SRI-42127, 3 uM for 12 hours. First, analysis of direct HuR mRNA targets and their corresponding cell signaling pathways was performed by using gene sets, which have been defined as the direct HuR targets following tumor neurosphere treatment with DHTS compound, an established modulator of the HuR/mRNA interaction.
Significant down-regulation of the pathways responsible for i) cell cycle progression, ii) DNA replication, iii) transport mature transcript to cytoplasm, iv) DNA strand elongation, v) capped intron-containing pre-mRNA processing, vi) DNA repair, vii) unwinding of DNA, viii) alpha-linolenic (omega 3) and linoleic (omega 6) metabolism, ix) chromosome maintenance, x) messenger RNA splicing was observed. It is established that HuR can control the centrosome and microtubule organizing center in cancer cells. […]

[5] = tested on: U251 cell line; assay: attached cell colony formation assay; assay type: cell-based; conditions: 3 uM
Procedure: (§2) The soft agar colony formation assay was performed by using 0.9% and 0.45% agarose for the bottom and the top layers, respectively; cells were incorporated in the top layer. Seaplaque low-melting temperature agarose was purchased from Lonza (Rockland, ME). Five hundred cells per well were utilized in both, the soft agar and the attached colony formation assays, which were performed in 6 well plates; cells were treated with vehicle as the control or with the desired drugs, which were administered twice per week for three weeks. The Crystal violet solution (0.1%) was utilized for colony staining in both assays. The colonies were counted after three weeks of treatment; the plate images were obtained by using Amersham Imager-600 reader (Piscataway, NJ).
(§3) Graphs in FIG. 8D illustrate the average numbers of colonies formed by established U251 and PDGx XD456 cell lines in the attached cell colony formation assay and in the soft agar colony formation assay, which represents anchorage independent cell growth.

[6] = tested on: XD456 cell line; assay: attached cell colony formation assay; assay type: cell-based; conditions: 3 uM
Procedure: as §2, §3

[7] = tested on: microglial lysates (iNOS, HuR, KSRP, Arginase 1, YM1); assay: Western blot analysis of microglial lysates; assay type: cell-based, mouse; conditions: 1.0 μM
[8] = Mouse liver microsomal stability in vitro; assay type: in vitro ADME; conditions: liver microsomes, read-out: MLM t1/2
Procedure: as §4

[9] = molecular target: IRAK1 (Homo sapiens, UniProt P51617); assay: SelectScreen kinase profiling, Adapta; assay type: biochemical
IRAK1, sequence (P51617 whole entry): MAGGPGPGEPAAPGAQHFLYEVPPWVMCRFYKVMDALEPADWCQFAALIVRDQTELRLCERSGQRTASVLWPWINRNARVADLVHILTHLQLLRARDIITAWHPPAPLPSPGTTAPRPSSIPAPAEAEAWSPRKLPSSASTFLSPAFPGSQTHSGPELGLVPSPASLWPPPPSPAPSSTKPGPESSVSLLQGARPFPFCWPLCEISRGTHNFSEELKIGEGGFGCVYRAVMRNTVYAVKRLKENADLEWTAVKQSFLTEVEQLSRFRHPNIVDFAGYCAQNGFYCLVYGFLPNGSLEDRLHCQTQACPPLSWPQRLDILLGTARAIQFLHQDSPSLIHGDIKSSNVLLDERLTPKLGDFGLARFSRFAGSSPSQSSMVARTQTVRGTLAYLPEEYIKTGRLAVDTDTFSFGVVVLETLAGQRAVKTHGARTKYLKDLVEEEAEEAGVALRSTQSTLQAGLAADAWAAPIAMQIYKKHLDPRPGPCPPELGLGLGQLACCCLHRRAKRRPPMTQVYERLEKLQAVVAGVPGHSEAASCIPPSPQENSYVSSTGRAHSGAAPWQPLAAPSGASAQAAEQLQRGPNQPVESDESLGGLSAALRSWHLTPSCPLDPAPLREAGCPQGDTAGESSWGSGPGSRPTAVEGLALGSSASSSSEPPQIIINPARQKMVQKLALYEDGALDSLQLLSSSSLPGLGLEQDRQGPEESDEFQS
Procedure: as §1

[10] = in vitro; conditions: human, liver microsomes
Procedure: as §4

[11] = 0.167 h, individual animals, 10 mg/kg
[12] = 0.5 h, individual animals, 10 mg/kg
[13] = 1 h, individual animals, 10 mg/kg

CN(c1ccc2ncc(-c3ccc4cn[nH]c4c3)n2n1)C1CCOCC1 [Compound 19]
concentration at 0.167 h ([1]; C57Bl/6, mouse, brain, ip, 10 mg/kg, 0.167 h, individual animals, read-out: Brain concentration): 1220 ng/g | concentration at 0.5 h ([1]; C57Bl/6, mouse, brain, ip, 10 mg/kg, 0.5 h, individual animals, read-out: Brain concentration): 420 ng/g | Kp ([1]; C57Bl/6, mouse, brain/plasma, ip, 10 mg/kg, mice, ip administration, all time points, read-out: brain/plasma concentration ratio): ~0.4 | Kp at 0.167 h ([1]; C57Bl/6, mouse, brain/plasma, ip, 10 mg/kg, 0.167 h, individual animals, read-out: Ratio (Brain/Plasma)): 0.419 | Kp at 0.167 h ([1]; C57Bl/6, mouse, brain/plasma, ip, 10 mg/kg, 0.167 h, read-out: Ratio (Brain/Plasma) Mean): 0.399 | Kp at 0.5 h ([1]; C57Bl/6, mouse, brain/plasma, ip, 10 mg/kg, 0.5 h, individual animals, read-out: Ratio (Brain/Plasma)): 0.536 | Kp at 0.5 h ([1]; C57Bl/6, mouse, brain/plasma, ip, 10 mg/kg, 0.5 h, read-out: Ratio (Brain/Plasma) Mean): 0.455 | Kp at 1 h ([1]; C57Bl/6, mouse, brain/plasma, ip, 10 mg/kg, 1 h, individual animals, read-out: Ratio (Brain/Plasma)): 0.408 | Kp at 1 h ([1]; C57Bl/6, mouse, brain/plasma, ip, 10 mg/kg, 1 h, read-out: Ratio (Brain/Plasma) Mean): 0.398 | concentration at 0.167 h ([1]; C57Bl/6, mouse, plasma, ip, 10 mg/kg, 0.167 h, individual animals, read-out: Plasma concentration): 2.91 µg/mL | concentration at 0.5 h ([1]; C57Bl/6, mouse, plasma, ip, 10 mg/kg, 0.5 h, individual animals, read-out: Plasma concentration): 0.782 µg/mL | AUC(0-inf) ([1]; 10 mg/kg ip, Brain): 0.55 µg·h/mL | AUC(0-t) ([1]; 10 mg/kg ip, Brain): 0.541 µg·h/mL | Cmax ([1]; 10 mg/kg ip, Brain): 1.37 µg/mL | Tmax ([1]; 10 mg/kg ip, Brain): 10 min | MRT inf ([1]; 10 mg/kg ip, Brain): 18.8 min | half-life ([1]; 10 mg/kg ip, Brain, read-out: T½ (converted)): 9.6 min | AUC(0-inf) ([1]; 10 mg/kg ip, Plasma): 1.34 µg·h/mL | AUC(0-t) ([1]; 10 mg/kg ip, Plasma): 1.32 µg·h/mL | Cmax ([1]; 10 mg/kg ip, Plasma): 3.46 µg/mL | Tmax ([1]; 10 mg/kg ip, Plasma): 10 min | MRT inf ([1]; 10 mg/kg ip, Plasma): 18.4 min | half-life ([1]; 10 mg/kg ip, Plasma, read-out: T½ (converted)): 9.6 min | half-life ([1]; dose of 10 mg/kg by IP, read-out: half-life (converted)): 9.6 min | brain/plasma concentration ratio ([1]; mice, ip administration, all time points, listed as SRI-42127): 0.42±0.05 | Brain concentration [1, 11]: 1375 ng/g and 1520 ng/g | Plasma concentration [1, 11]: 3.45 µg/mL and 4.01 µg/mL | Ratio (Brain/Plasma) [1, 11]: 0.379 | Brain concentration [1, 12]: 545 ng/g and 391 ng/g | Plasma concentration [1, 12]: 1.43 µg/mL and 0.87 µg/mL | Ratio (Brain/Plasma) [1, 12]: 0.381 and 0.449 | Brain concentration [1, 13]: 53.0 ng/g and 43.9 ng/g and 19.7 ng/g | Plasma concentration [1, 13]: 0.13 µg/mL and 0.104 µg/mL and 0.0539 µg/mL | Ratio (Brain/Plasma) [1, 13]: 0.422 and 0.365 | AUCExtrap—obs ([1]; 10 mg/kg ip, Brain): 1.63% | AUCExtrap—obs ([1]; 10 mg/kg ip, Plasma): 1.65% | solubility [2]: 2.4 µM (≈ 0.836 µg/mL) | IC50 [3]: 0.12 µM | up-regulation of Tubb2A transcript [4]: more than 2 folds | number of colonies [5]: 49+28 | number of colonies [6]: 34+12 | suppression of iNOS protein [7]: 4.2 fold | half-life [8]: 3.3 min | IC50 [9]: 0.319 µM | half-life [10]: 8.6 min
